SMILES strings stand for the structures. Some results are limits rather than exact numbers.

The target in assay [1] is T1, Purine nucleoside phosphorylase (Homo sapiens, UniProt P00491).
T1 sequence (P00491 whole entry): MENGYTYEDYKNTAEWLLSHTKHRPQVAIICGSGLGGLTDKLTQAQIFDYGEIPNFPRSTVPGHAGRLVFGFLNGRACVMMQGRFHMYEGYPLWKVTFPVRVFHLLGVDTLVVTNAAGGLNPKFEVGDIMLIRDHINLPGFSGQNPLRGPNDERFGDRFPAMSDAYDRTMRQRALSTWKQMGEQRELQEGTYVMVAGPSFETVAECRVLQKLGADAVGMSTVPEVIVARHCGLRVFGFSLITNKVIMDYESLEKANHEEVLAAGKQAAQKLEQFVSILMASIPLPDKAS

Assay [2] deals with MOLT-4. Put plainly: cells. Conditions: Homo sapiens.
Assay [3] has as its target T2, Purine nucleoside phosphorylase (Homo sapiens) (UniProt P00491).
T2 sequence (whole entry): T1 sequence (P00491 whole entry)
Put plainly: Inhibitory activity against Purine nucleoside phosphorylase evaluated by radiochemical assay concentration <300 uM. The assay is classed as tissue-based.

Assay [4] concerns the target T2, Purine nucleoside phosphorylase (Homo sapiens). Put plainly: Inhibitory activity against Purine nucleoside phosphorylase evaluated by radiochemical assay. The assay is classed as tissue-based. The conditions noted are these: Urine; concentration not given here.
Assay [5] has the same target. Put plainly: Inhibitory activity against Purine nucleoside phosphorylase evaluated by radiochemical assay <300 uM. The assay is classed as tissue-based. The conditions noted are these: Urine.
Assay [6] has the same target. Put plainly: Inhibitory activity against Purine nucleoside phosphorylase evaluated by radiochemical assay at <300 uM. It is filed as tissue-based. The conditions noted are these: Urine.

Regarding `Nc1nc2c(O)nc(N)n(Cc3ccco3)c-2n1`, the IC50 is 5.2 µM in assay [1] and 42.5 µM in assay [2].

`O=[N+]([O-])c1ccc(Cn2cnc(O)c3ncnc2-3)cc1`: in assay [3], the inhibition turned out to be 13.1%.

`Oc1ncn(Cc2ccc(Cl)c(Cl)c2)c2ncnc1-2` showed an inhibition in assay [3] of 36.9%. In assay [2], `Nc1nc(O)c2nc(N)n(Cc3cccs3)c2n1` had an IC50 of 0.82 µM. Regarding `Nc1nc(O)c2ncn(Cc3ccccc3)c2n1`, the IC50 in assay [1] turned out to be 29.6 µM; in assay [2] it was 35 µM.

For the compound `Oc1nc(S)n(Cc2ccccc2)c2ncnc1-2`, the inhibition in assay [4] was 78.3%. For `Nc1nc(O)c2nc(N)n(Cc3ccco3)c2n1`, the IC50 in assay [2] turned out to be 1.47 µM. `Oc1ncn(Cc2ccccc2)c2ncnc1-2`: the IC50 was found to be 112 µM in assay [1] and 204 µM in assay [2]. For the same compound, in assay [5], the inhibition was found to be 81%. For the compound `COc1ccc(Cn2c(N)nc(O)c3nc(N)nc2-3)cc1`, half-maximal inhibition in assay [1] (IC50) required 8.9 µM. With `Oc1nc(S)n(CCc2ccccc2)c2ncnc1-2`, the inhibition in assay [6] came to 10.9%. In assay [1], `Nc1nc(O)c2nc(NC=O)nc-2n1Cc1ccccc1` returned an IC50 of more than 150 µM.

In the case of `Nc1nc2c(O)nc(N)n(Cc3cccs3)c-2n1`, the IC50 is 4.6 µM in assay [1] and more than 25 µM in assay [2]. With `N#Cc1ccc(Cn2cnc(O)c3ncnc2-3)cc1`, in assay [3], the inhibition amounted to 22.2%. Turning to `O=c1[nH]c(=O)n(Cc2ccccc2)c2nc[nH]c12`, the results for the IC50 in assay [1] and in assay [2] were 13.4 µM and 28.6 µM, respectively. In turn, `Oc1ncn(CCc2ccccc2)c2ncnc1-2` returned an inhibition in assay [3] of 26.8%.

In the case of `Nc1[nH]c[n+](Cc2ccccc2)c2ncnc1-2`, the IC50 in assay [1] is 95 µM. As to `Nc1nc(O)c2nc(N)n(Cc3ccccc3)c2n1`, the IC50 in assay [1] amounted to 0.47 µM; in assay [2], 0.77 µM. In turn, `CSc1nc(O)c2nc(N)nc-2n1Cc1ccccc1` came in with an IC50 in assay [1] of more than 75 µM. In assay [3], `CSc1nc(O)c2ncnc-2n1Cc1ccccc1` showed an inhibition of 23.3%. Regarding `Nc1nc2c(S)ncn(Cc3ccccc3)c-2n1`, in assay [1], the IC50 stood at 131 µM.

As usually defined, the IC50 is the midpoint of a concentration-inhibition curve. The low end stands for greater potency in that assay, the high end for weaker potency in that assay. As usually defined, the inhibition is the share of the control response that was lost under treatment.

The values above are taken from ChEMBL document CHEMBL1125439, “Inhibitors of human purine nucleoside phosphorylase. Synthesis and biological activities of 8-amino-3-benzylhypoxanthine and related analogues” (J Med Chem, 1992).
